The subject of one assay is PBS2 deletion strains. The conditions noted are these: homozygous deletion set screens (Fuijta et al. 2006; van Voorst et al. 2006) and other literature; cited from earlier work.
The subject of the next assay is haploid cells. The settings on record: Lorenz et al. 2000; cited from earlier work.
The subject of assay [1] is PBS2p over-producing strain. As to the kind of experiment: Growth yield in the presence of isobutanol, PBS2 ORF overexpressed from GAL1 promoter. Format: cell-based, Saccharomyces cerevisiae. The conditions noted are these: 1% isobutanol, PBS2p over-producing strain vs BY4741. As to the method:
The effect of overexpression of the PBS2 coding region was assessed as follows. A Yeast ORF collection (Gelperin, White et al. (2005) Genes Dev. 19(23):2816-2826)_is available from Open Biosystems (Huntsville, Ala.). In this collection yeast ORFs are expressed from the GAL1 promoter in the vector BG1805. This vector can be introduced into ura3 yeast mutants and transformants selected for uracil prototrophy. In the presence of galactose and the absence of glucose, expression from the GAL1 promoter is elevated about 1000 fold relative to the barely detectable level observed with glucose grown cells (Johnston and Davis (1984) Mol. Cell. Biol. 4(8):1440-1448). Note that each ORF encodes a fusion protein of the form:
A plasmid containing the PBS2 ORF was obtained from this collection (YSC3867-9523439) and transformed into yeast strain BY4741 selecting for uracil prototrophy. […] Growth yield was measured by the following method. […] Absorbance was recorded.
Cultures were grown for 2-3 hours to allow one doubling. Absorbance was recorded at this time and was called T=0. […] OD600 was measured after incubation on a roller drum for 2 days. […] Percent growth was calculated as 100×[average A600 of the triplicate isobutanol challenged cultures/average A600 of the triplicate control cultures.

The test system of assay [2] is translation at the initiation step. The settings on record: Ashe et al. 2001; cited from earlier work.

Regarding `O[C@H](CS)[C@H](O)CS` (racemic) [dithiothreitol], in the assay with PBS2 deletion strains, the “hypersensitivity of PBS2 deletion strains” value (“hypersensitivity” for short) was “hypersensitive”.

Take `CCCCO` [1-butanol]: the “effect on growth morphology” value with haploid cells is recorded as “stimulates filamentous growth in haploid cells”.

On to `OCCS` [2-mercaptoethanol], for which the “hypersensitivity” value with PBS2 deletion strains was “hypersensitive”.

As for `[Ca+2].[Cl-].[Cl-]` [CaCl2], in the assay with PBS2 deletion strains, the “hypersensitivity” value is reported as “hypersensitive”.

As to `[Cl-].[Na+]` [NaCl], the “hypersensitivity” value with PBS2 deletion strains is on record as “hypersensitive”.

`CCO` [ethanol]: the “hypersensitivity” value with PBS2 deletion strains is on record as “not found to be hypersensitive”.

For the molecule `CC(C)CO` [isobutanol], in assay [1], the “improvement in growth yield over the parental strain” value turned out to be 41%.

Regarding `COC(=O)Nc1nc2ccc(C(=O)c3cccs3)cc2[nH]1` [nocodazole], the “hypersensitivity” value in the assay with PBS2 deletion strains is “hypersensitive”.

Take `CCCCCO` [pentanol]: the “hypersensitivity” value with PBS2 deletion strains is listed as “not found to be hypersensitive”.

Take `CCCO` [propanol]: the “hypersensitivity” value in the assay with PBS2 deletion strains is given as “not found to be hypersensitive”.

As to `O=[As][O-].[Na+]` [sodium metaarsenite], in the assay on PBS2 deletion strains, the “hypersensitivity” value was “hypersensitive”.

As to `OC[C@@H](O)[C@@H](O)[C@H](O)[C@@H](O)CO` [sorbitol], the “hypersensitivity” value in the assay on PBS2 deletion strains is on record as “hypersensitive”.

In the case of butanol, the effect on translation result in assay [2] is “rapid inhibition of translation at the initiation step”.

Regarding tunicamycin, the “hypersensitivity” value in the assay with PBS2 deletion strains is listed as “hypersensitive”.

The values above are taken from patent publication US8455225B2, “Yeast with increased butanol tolerance involving high osmolarity/glycerol response pathway” (Butamax Advanced Biofuels LLC, priority 2008, dated 2013).
